The record followed here is ChEMBL document CHEMBL5465560, “Selectivity Literature for EUbOPEN Chemogenomic Library” (2024).

Changes are numbered by the printed parent chain.

In assay [1] the target is Receptor-type tyrosine-protein kinase FLT3 (Homo sapiens) (UniProt P36888). As to the kind of experiment: (§1) Selectivity interaction (KinomeScan (DiscoverX)) EUB0000045b FLT3.
For assay [2], the system named is T1, Receptor-type tyrosine-protein kinase FLT3 (Homo sapiens), P36888 [D835Y].
T1 sequence (whole entry): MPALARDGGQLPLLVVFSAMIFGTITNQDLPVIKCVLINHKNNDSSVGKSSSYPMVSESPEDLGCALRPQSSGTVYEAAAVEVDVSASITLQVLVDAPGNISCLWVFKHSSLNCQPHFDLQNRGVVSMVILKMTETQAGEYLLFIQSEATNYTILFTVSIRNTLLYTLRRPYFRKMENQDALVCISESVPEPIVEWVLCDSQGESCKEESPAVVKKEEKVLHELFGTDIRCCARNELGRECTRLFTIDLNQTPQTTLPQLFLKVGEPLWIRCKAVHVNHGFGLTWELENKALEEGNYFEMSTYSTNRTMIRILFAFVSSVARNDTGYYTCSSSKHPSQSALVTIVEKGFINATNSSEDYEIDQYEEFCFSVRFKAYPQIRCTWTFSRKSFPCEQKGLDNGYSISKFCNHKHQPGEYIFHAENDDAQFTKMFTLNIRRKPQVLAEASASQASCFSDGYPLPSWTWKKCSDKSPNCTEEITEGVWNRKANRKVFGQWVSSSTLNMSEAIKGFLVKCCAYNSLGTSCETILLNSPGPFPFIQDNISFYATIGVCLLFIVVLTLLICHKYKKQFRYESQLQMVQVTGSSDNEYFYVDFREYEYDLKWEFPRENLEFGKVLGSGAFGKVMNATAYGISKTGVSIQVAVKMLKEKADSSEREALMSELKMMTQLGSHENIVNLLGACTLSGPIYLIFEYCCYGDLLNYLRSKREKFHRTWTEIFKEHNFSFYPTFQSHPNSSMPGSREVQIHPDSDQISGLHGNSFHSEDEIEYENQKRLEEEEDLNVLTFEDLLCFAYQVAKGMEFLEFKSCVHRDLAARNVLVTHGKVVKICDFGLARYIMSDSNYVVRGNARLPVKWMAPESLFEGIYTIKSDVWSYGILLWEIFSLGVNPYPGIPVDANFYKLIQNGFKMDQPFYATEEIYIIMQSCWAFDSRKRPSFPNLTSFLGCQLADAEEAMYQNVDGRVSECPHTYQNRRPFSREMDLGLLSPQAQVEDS
Described as §1.

Assay [3] concerns T2, Receptor-type tyrosine-protein kinase FLT3 (Homo sapiens), P36888 [K663Q].
T2 sequence (whole entry): T1 sequence (whole entry) with K663Q, Y835D
The description is as §1.

For assay [4], the system named is T3, Receptor-type tyrosine-protein kinase FLT3 (Homo sapiens), P36888 [R834Q].
T3 sequence (whole entry): T1 sequence (whole entry) with R834Q, Y835D
The assay is described as §1.

Take `C=CC(=O)Nc1cc(-n2c(=O)ccc3cnc4ccc(-c5ccc(NS(C)(=O)=O)cc5)cc4c32)ccc1C`: the % of control in assay [1] (at 1 µM) was 80%; in assay [1] (at 10 µM), 81%; in assay [2] (at 1 µM) it was 100%; in assay [2] (at 10 µM) it was 100%; in assay [3] (at 1 µM), 100%; in assay [3] (at 10 µM), 100%. Also, the % of control in assay [4] (at 1 µM) and in assay [4] (at 10 µM) was 100% in each case.
